Literature values in patent US20130202654A1, “Topical Foam Composition” (priority 2009, published 2013).
Where two headings read alike, the source gives them in different places.

Experiments:
[1] = not given; remark: listed apart in the source
[2] = not given; remark: listed apart in the source

## CO[C@H]1/C=C/O[C@@]2(C)Oc3c(C)c(O)c4c(O)c(c5c(nc6cc(C)ccn65)c4c3C2=O)NC(=O)/C(C)=C\C=C\[C@H](C)[C@H](O)[C@@H](C)[C@@H](O)[C@@H](C)[C@H](OC(C)=O)[C@@H]1C [Rifaximin, (2S,16Z,18E,20S,21S,22R,23R,24R,25S,26S,27S,28E)-5,6,21,23,25-pentahydroxy-27-methoxy-2,4,11,16,20,22,24,26-octamethyl-2,7-(epoxypentadeca-[1,11,13]trienimino)benzofuro[4,5-e]pyrido[1,2-a]-benzimida-zole-1,15(2H)-dione,25-acetate]
other
  bound to plasma proteins: 67.5%
[1]; alcohol, ethyl acetate, chloroform, toluene
  solubility in alcohol, ethyl acetate, chloroform and toluene: soluble
[1]; alcohols
  solubility in alcohols: readily soluble
[1]
  solubility in water: water insoluble
[1]; listed as rifaximin
  solubility in water: virtually insoluble in water
[2]; in vivo
  Tmax: 0.8 h
  half-life: 1.8 h
[2]; low systemic absorption
  Cmax: 3.4 ng/mL
